“Also recorded” adds a separate entry of the source.
Assays:
[1] = tested on: CHO-7W cells; assay: Flow cytometry cell cycle distribution, CHO-7W; type: cell-based, Chinese Hamster; conditions: 25 μM
Procedure: Naïve and CHO-7W cells were collected by trypsin/EDTA treatment and counted using a haemocytometer. The cells (1×10^5) were deposited into 10 cm tissue culture dishes containing fresh media and grown for 24 hours prior to DIF-1 treatment (25 μM). Cells were grown in the presence of DIF-1 for approximately 20 hours. Cells harvested by the trypsin/EDTA treatment were suspended in hypotonic fluorochrome solution containing 50 ug/ml of propidium iodide, 0.1% sodium citrate, and 0.1% Triton X-100. Cells (5×10^4) for each sample were analyzed for fluorescence using the Massachusetts General Hospital cytology core. Cell cycle distribution was compared between vehicle and DIF-1 treated nave CHO cells, and CHO-7W cells. The percentage of cells in G0/G1, S-phase and G2/M represents the mean cell number±the standard deviation from at least 3 separate experiments.
CHO/APP cells were incubated with DIF-1 (25 μM) for the indicated periods and then harvested, fixed and stained with propidium iodide (PI) and fluorescence of nuclei was measured. Histogram peaks are labeled by phases. The percentages of cell number in the cell cycle phases are shown as means+/−S.E. of three independent experiments performed in duplicate. The effects of DIF-1 on CHO-7W cell growth is also a result of G0/G1 cell cycle block (50.1%±1.1) as measured by flow cytometry (FIG. 2B).

[2] = tested on: human APLP2; assay: APLP2 CTF levels in CHO cells expressing APLP2; type: cell-based; conditions: co-treatment of DIF-1 and DAPT
Source text: To ascertain if DIF-1 indiscriminately perturbs the metabolism of type I transmembrane proteins we investigated the processing of other γ-secretase substrates.

[3] = tested on: CHO cells; assay: Cell proliferation assay (haemocytometer counts); type: cell-based, Chinese Hamster
Source text: (§1) For proliferation assays, 1×10^4 cells were deposited into 24-well plates and treated with vehicle (ethanol or DMSO) or with various amounts of DIF-1 or DIF-3 for a period of 4 days. Cells were harvested after each day by trypsin/EDTA treatment, stained with an equal volume of 0.05% Trypan blue and enumerated in triplicate twice using a haemocytometer. Dead cells are stained blue, but live cells with intact cell membranes are not coloured. Data represents the mean cell number±the standard deviation for at least 3 separate experiments.
We therefore assessed the dose-dependent anti-proliferative effect of DIF-1 on normal (non-transformed) CHO cells (FIG. 1A). Briefly, CHO cells were seeded on a 6-well plate (10,000 cells/well) and were incubated with 25 μM DIF-1. Cells were harvested by the trypsin/EDTA treatment at the times indicated and counted with a haemocytometer. […] Therefore, for this study we only analyzed the effect of DIF-1 between 18 and 20 hours.

[4] = tested on: APP ubiquitin-conjugates; assay: APP ubiquitin-conjugates by immunoprecipitation and western blot; conditions: CHO-CAB
Procedure: For immunoprecipitations, 1 mg of total protein was diluted with extraction buffer and precleared with protein G-conjugated agarose beads (Pierce). The precleared samples were incubated overnight with anti-APP antibodies or nonimmune IgG (Jackson Laboratories). Immunocomplexes were captured with Protein G agarose beads, washed five times with extraction buffer and heated for 5 min at 95° C. in SDS gel-loading buffer.
CHO-CAB cell protein extracts (1 mg) were immunoprecipitated using APP antibodies. The immunoprecipitated complexes were analyzed by western blotting using anti-ubiquitin antibodies. […] Molecular Weight markers (kDa) are shown on the left. GAPDH levels are shown below each blot. The data represents that of three separate experiments.
To determine whether the proteasome-mediated degradation of APP is accompanied by increased levels of poly-ubiquitinated APP, we investigated the ubiquitination status of APP in extracts of CHO-CAB cells treated in the absence or presence of DIF-1 (30 μM), lactacystin (10 μM), ALLN (10 μM), DIF-1+lactacystin and DIF-1+ALLN.

[5] = tested on: CHO cells; assay: Cell viability (trypan blue exclusion) and apoptosis (caspase-3); type: cell-based
Source text: as §1
Cells were harvested by the trypsin/EDTA treatment at the times indicated and counted with a haemocytometer.

[6] = tested on: APP; assay: APP processing (mature APP, αCTF, βCTF) by western blot; type: cell-based, human
Procedure: Total protein was collected in RIPA buffer plus protease inhibitors on ice and briefly sonicated. They lysate was centrifuged at 14,000 rpm for 15 minutes. […] After washing, the blots were probed with a polyclonal HRP-tagged secondary Ab (1:5000) for 1 hour at room temperature then visualized.
A second possibility is that DIF-1 potentiates the activity of y-secretase and processing of αCTFs and βCTFs. To assess this latter possibility, we examined the effect of DIF-1 in the presence of DAPT, a potent γ-secretase inhibitor. Even numbers of CHO-7W cells were plated in 6-well dishes and allowed to grow overnight. The next day, the media was removed and replaced with control media (2 ml) or media containing DAPT, DIF-1 or DAPT and DIF-1. […] After washing, blots were probed with HRP-conjugated secondary antibodies (1:5000) for 1 hour at room temperature. […] It would appear that the mechanism of DIF-1 on APP metabolism is not likely to involve γ-secretase activity, but might impact on either BACE1 levels or activity.
To evaluate this probability, we treated CHO-CAB cells that overexpress human APP^751 and human BACE1 with 30 μM of DIF-1. More specifically, even numbers of CHO-CAB cells were plated in 6-well dishes and allowed to grow overnight. The next day, the media was removed and replaced with control media (2 ml) or media containing DAPT, DIF-1 or DAPT and DIF-1. […] After washing, blots were probed with HRP-conjugated secondary antibodies (1:5000) for 1 hour at room temperature. Each treatment is shown above the blot. […] It would appear that DIF-1 has a greater effect on APP maturation in CHO-CAB cells. Longer exposures reveal the presence of mature APP bands in DIF-1 treated cells.
Next dose-dependent effects of DIF-1 on APP processing were examined. Even numbers of CHO-CAB cells were plated in 6-well dishes and allowed to grow overnight. The next day, cells were treated overnight with either vehicle or increasing concentrations of DIF-1 (5-30 μM).

[7] = tested on: APP phosphorylation on residue T668; assay: APP T668 phosphorylation by western blot; type: cell-based, human; conditions: CHO-7W and CHO-CAB; DAPT alone, or DAPT with DIF-1 (30 μM)
Procedure: Next, whether or not DIF-1 treatment affected the degree of T668 phosphorylation was examined by western blot (FIG. 11). Briefly, effects of DIF-1 on APP T668 phosphorylation were compared between vehicle-treated control and 250 nM of DAPT identically in each cell line. Western analysis of 15 μg of total protein was probed overnight at 4° C. with anti-APP Cterminal antibody (C66-676-695) (1:5000) and then detected on film using ECL and HRP-conjugated secondary antibodies (1:5000). […] This band has also been detected in other CHO lines where APP expression is high (˜3 fold) and by different C-terminal APP antibodies (Ab8717-676-695; except 6E10 which recognizes the N-terminal residues 1-17 of the Aβ sequence. For FIG. 11A, cells were treated with DAPT, and DAPT+DIF then were probed with anti-APP antibody (C66). For FIG. 11B, CHO-7W cells were treated with DAPT, and DAPT+DIF, and then probed with polyclonal anti-P668 APP antibody (1:1000) overnight at 4° C. in 5% BSA. After washing, cells were probed with a rabbit HRP-conjugated secondary antibody (1:5000) in BSA for 1 hour at room temperature and signals were detected on film using ECL. FIG. 11C represents CHO-CAB cells and FIG. 11D represents H4 cells expressing APP^SW.

With CCCCCC(=O)c1c(O)c(Cl)c(OC)c(Cl)c1O [DIF-1, 1-[3,5-dichloro-2,6-dihydroxy-4-methoxyphenyl]-1-hexanone] the “G0/G1 cell cycle block (percentage of cells)” value [1] was 50.1%±1.1, the “APLP2 CTF levels” value [2] was “decrease in APLP2 CTF levels” and the inhibition of growth ([3]; 25 μM, 24 hours) was “minor, yet insignificant inhibition of growth”. The “decrease in proliferation compared to control and vehicle treated cells” value ([3]; after 72 hours, all cell lines tested (e.g. CHO, N2a and SH-SY5Y)) was 70-75%, the “reversibility of antiproliferative effect” value ([3]; washing treated cells with PBS and fresh growth media) was “readily reversed” and the “APP ubiquitin conjugates, treatment with both lactacystin and DIF-1” value [4] was “only slightly reduced”. The “APP ubiquitin-conjugates, co-treatment with ALLN” value [4] was “prevented the accumulation APP ubiqutin-conjugates”, the “level of APP ubiquitin-conjugates (single agent)” value ([4]; DIF-1 30 μM, lactacystin 10 μM, ALLN 10 μM) was “decreased levels of APP ubiquitin-conjugates” and the “cell adhesion, cell shape, apoptosis (caspase-3 activation)” value [5] was “did not effect cell adhesion, cell shape or induce apoptosis”. The “effect on cell viability (trypan blue exclusion)” value ([5]; any of the cell lines tested) was “no observable effect on cell viability”, the “APP maturation and αCTF and βCTF levels” value ([6]; CHO-7W, 30 μM DIF-1 alone) was “significant decrease in APP maturation and both αCTF and βCTF production; also recorded: significant decreases in both αCTF and βCTF levels” and the “αCTF and βCTF levels, simultaneous treatment with DAPT” value ([6]; CHO-7W, 30 μM DIF-1 plus 250 nM DAPT) was “increased, but not to the level seen with DAPT alone”. The “effect on APP metabolism with BACE1 overexpression” value ([6]; CHO-CAB, 30 μM) was “did not repress the effects of DIF-1 on APP metabolism”, the “dose dependence of αCTF and βCTF reduction” value ([6]; CHO-CAB, 5-30 μM) was “reduced both αCTFs and βCTFs in a dose-dependent manner” and the “concentration required to have an effect on mature APP levels” value ([6]; CHO-CAB, 5-30 μM overnight) was about 20 µM. For the same compound, the “amount of T668 phosphorylated APP CTFs” value [7] was “large reduction in the amount of T668 phosphorylated APP CTFs”.

Source: US20100311726A1, “REDUCTION OF BETA-AMYLOID LEVELS BY TREATMENT WITH THE SMALL MOLECULE DIFFERENTIATION-INDUCING FACTOR” (priority 2007, published 2010)
